Measurements: ChEMBL document CHEMBL1909046, “DrugMatrix in vitro pharmacology data”

Columns and labels:
[1] = biological target: Beta-2 adrenergic receptor (Homo sapiens, UniProt P07550); assay: DRUGMATRIX: Adrenergic beta2 radioligand binding (ligand: [3H] CGP-12177); format: cell membranes, Membrane; settings: cho; Not Active = under 50% inhibition at 10 µM
[2] = biological target: Protein kinase C alpha type (Homo sapiens, UniProt P17252); format: cell-based; settings: sf9;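 further: inhibition of PKCalpha kinase activity measured in an enzyme assay with histone as the phosphorylation substrate; in other assays of this panel Not Active means under 50% inhibition at 10 µM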
[3] = biological target: Platelet-activating factor receptor (Homo sapiens, UniProt P25105); assay: biochemical; format: tissue-based; settings: platelet; further: in other assays of this panel Not Active means under 50% inhibition at 10 µM
Chain of Platelet-activating factor receptor (P25105 whole entry): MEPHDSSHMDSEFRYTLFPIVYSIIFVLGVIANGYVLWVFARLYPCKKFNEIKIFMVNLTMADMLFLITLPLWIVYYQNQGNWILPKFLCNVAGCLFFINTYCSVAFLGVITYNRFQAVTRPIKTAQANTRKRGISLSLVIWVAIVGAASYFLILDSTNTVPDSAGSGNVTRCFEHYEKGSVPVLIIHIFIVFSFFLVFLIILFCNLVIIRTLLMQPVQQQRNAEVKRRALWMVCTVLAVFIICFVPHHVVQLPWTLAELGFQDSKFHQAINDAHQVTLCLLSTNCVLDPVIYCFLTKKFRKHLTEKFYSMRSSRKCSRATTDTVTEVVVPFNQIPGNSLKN

Cytochrome P450 3A4 = Cytochrome P450 3A4 (Homo sapiens, UniProt P08684); settings: bti-tn-5b1-4; further: in other assays of this panel Not Active means under 50% inhibition at 10 µM
Chain of Cytochrome P450 3A4 (P08684 whole entry): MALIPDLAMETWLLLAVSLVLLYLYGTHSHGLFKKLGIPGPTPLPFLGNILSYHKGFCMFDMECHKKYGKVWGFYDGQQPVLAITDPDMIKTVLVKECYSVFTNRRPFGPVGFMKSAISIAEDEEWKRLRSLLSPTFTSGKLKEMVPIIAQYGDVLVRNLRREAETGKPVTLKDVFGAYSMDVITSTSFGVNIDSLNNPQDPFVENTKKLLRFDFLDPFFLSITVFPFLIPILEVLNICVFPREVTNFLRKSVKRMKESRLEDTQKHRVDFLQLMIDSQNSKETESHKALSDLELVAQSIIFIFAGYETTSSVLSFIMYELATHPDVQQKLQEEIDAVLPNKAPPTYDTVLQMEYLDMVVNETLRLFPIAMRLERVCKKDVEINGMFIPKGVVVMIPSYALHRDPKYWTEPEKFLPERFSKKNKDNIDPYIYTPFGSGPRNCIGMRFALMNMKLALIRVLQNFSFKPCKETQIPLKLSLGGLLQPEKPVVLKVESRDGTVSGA

[4] = biological target: Prostaglandin G/H synthase 1 (Homo sapiens, UniProt P23219); assay: biochemical; format: tissue-based, Platelet; settings: platelet;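 further: inhibition of COX-1 enzyme activity, with arachidonic acid supplied as substrate; in other assays of this panel Not Active means under 50% inhibition at 10 µM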
Chain of Prostaglandin G/H synthase 1 (P23219 whole entry): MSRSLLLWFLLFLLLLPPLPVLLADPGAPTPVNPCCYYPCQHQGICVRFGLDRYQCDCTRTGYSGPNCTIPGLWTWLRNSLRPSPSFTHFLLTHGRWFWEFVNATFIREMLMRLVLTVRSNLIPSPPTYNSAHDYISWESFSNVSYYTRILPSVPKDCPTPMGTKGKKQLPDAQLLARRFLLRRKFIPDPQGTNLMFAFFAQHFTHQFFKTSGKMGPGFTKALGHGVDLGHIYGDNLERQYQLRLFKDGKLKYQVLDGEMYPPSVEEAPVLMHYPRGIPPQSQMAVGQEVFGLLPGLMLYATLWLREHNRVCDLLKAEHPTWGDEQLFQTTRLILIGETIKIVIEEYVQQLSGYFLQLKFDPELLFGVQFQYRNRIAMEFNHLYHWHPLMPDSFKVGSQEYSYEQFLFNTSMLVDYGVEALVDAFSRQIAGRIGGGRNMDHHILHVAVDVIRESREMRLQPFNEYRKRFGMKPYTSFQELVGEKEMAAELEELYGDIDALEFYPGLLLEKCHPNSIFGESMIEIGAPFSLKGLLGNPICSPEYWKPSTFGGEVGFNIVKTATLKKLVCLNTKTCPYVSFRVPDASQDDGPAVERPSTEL

[5] = biological target: T1, Angiotensin-converting enzyme (Oryctolagus cuniculus, UniProt P12822); assay: biochemical; format: tissue-based, Lung
T1 sequence (P12822 whole entry): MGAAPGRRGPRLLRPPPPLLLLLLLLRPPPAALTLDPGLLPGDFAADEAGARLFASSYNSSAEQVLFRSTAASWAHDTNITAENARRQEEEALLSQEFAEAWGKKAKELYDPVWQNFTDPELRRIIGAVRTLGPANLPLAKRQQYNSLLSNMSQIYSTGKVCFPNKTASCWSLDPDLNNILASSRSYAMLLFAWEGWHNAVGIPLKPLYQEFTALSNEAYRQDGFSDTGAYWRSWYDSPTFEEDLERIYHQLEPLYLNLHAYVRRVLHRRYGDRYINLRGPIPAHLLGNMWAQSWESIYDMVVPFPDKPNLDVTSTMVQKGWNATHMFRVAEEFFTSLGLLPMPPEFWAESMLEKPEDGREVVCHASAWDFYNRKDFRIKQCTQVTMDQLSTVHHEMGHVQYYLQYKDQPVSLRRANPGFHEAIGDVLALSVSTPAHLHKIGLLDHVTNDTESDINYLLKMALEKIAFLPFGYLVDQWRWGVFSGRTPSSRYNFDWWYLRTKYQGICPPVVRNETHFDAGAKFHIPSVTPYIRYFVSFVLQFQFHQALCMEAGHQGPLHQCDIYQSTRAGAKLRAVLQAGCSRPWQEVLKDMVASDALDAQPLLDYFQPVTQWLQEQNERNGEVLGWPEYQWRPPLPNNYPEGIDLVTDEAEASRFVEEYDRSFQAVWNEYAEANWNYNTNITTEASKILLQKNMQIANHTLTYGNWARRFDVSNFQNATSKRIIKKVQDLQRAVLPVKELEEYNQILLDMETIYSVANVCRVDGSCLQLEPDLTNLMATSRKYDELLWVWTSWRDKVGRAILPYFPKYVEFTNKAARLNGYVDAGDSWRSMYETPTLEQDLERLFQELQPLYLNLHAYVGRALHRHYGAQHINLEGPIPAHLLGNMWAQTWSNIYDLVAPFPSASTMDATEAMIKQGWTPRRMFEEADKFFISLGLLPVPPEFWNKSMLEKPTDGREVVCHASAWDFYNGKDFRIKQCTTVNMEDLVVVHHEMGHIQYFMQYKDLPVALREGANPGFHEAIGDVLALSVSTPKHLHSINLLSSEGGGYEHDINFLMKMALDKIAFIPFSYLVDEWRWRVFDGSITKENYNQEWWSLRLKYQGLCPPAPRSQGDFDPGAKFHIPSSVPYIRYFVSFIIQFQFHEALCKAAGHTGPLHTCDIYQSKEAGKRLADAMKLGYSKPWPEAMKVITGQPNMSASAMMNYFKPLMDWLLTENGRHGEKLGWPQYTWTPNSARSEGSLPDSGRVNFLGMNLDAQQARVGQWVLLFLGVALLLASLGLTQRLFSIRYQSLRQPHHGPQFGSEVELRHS

[6] = DRUGMATRIX: Atrial Natriuretic Factor (ANF) radioligand binding (ligand: [125I] ANF (rat)); format: cell membranes, Cavia porcellus, Dunkin-Hartley, Adrenal gland, Membrane; settings: Not Active = under 50% inhibition at 10 µM
Caspase-1 = biological target: T2, Caspase-1 (Homo sapiens, UniProt P29466); parameters: species or system Escherichia coli
T2 sequence (P29466 whole entry): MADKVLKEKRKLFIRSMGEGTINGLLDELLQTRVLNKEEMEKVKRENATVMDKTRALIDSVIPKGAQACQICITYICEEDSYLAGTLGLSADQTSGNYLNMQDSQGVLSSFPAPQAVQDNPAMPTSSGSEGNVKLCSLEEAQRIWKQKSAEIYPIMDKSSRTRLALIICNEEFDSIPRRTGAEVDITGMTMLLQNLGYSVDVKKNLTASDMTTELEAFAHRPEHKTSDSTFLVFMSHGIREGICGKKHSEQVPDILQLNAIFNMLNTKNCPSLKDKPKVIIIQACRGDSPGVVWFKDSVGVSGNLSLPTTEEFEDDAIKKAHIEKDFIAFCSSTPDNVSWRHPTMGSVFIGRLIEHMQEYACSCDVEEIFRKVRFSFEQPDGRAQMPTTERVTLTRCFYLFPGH

[7] = DRUGMATRIX: Nicotinic Acetylcholine radioligand binding (ligand: [125I] Epibatidine); format: cell membranes, Membrane; settings: imr-32; Not Active = under 50% inhibition at 10 µM
[8] = DRUGMATRIX: Glutamate, NMDA, Agonism radioligand binding (ligand: [3H] CGP-39653); format: cell membranes, Rattus norvegicus, Wistar, Cerebral cortex, Membrane; settings: Not Active = under 50% inhibition at 10 µM
[9] = DRUGMATRIX: Tumor Necrosis Factor (TNF), Non-Selective radioligand binding (ligand: [125I] TNF-alpha); format: cell membranes, Membrane; settings: u-937; Not Active = under 50% inhibition at 10 µM
[10] = biological target: T3, 5-hydroxytryptamine receptor 2C (Homo sapiens, UniProt P28335); assay: DRUGMATRIX: Serotonin (5-Hydroxytryptamine) 5-HT2C radioligand binding (ligand: [3H] Mesulergine); format: cell membranes, CHO-K1, Membrane; settings: cho-k1; Not Active = under 50% inhibition at 10 µM
T3 sequence (P28335 whole entry): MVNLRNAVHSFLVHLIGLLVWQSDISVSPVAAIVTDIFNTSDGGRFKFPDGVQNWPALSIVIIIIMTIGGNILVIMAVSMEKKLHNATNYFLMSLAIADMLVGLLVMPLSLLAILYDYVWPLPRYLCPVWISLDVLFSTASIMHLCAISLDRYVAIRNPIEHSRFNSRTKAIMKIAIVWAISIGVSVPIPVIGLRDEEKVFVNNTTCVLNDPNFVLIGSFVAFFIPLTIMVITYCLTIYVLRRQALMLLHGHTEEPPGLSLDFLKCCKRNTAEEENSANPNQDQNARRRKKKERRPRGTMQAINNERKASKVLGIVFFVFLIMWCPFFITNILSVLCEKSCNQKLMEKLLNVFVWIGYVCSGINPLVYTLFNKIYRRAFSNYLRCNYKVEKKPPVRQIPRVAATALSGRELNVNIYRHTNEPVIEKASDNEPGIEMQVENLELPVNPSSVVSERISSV

Chain of Beta-2 adrenergic receptor (P07550 whole entry): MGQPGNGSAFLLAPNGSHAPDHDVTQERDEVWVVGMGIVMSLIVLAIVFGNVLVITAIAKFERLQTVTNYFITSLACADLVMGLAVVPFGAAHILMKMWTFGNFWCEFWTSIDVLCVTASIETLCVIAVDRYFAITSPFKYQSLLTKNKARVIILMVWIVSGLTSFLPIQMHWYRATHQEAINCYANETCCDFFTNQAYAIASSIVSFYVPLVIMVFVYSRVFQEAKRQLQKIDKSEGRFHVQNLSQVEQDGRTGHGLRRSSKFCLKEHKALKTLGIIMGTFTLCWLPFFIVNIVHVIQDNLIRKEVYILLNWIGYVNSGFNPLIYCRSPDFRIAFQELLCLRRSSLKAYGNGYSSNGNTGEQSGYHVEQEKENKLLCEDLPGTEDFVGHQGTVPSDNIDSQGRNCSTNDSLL

CC(C)(S)[C@@H](N)C(=O)O [PENICILLAMINE]
Not Active: IC50 [1] | IC50 [2] | IC50 [3] | IC50 (Cytochrome P450 3A4) | Ki (Cytochrome P450 3A4) | IC50 [4] | IC50 [5] | IC50 [6] | Ki [6] | IC50 (Caspase-1) | IC50 [7] | Ki [7] | IC50 [8] | Ki [8] | IC50 [9] | Ki [9] | IC50 [10]

CC(=O)CCCCn1c(=O)c2c(ncn2C)n(C)c1=O [PENTOXIFYLLINE]
Not Active: IC50 [1] | IC50 [2] | IC50 [3] | IC50 (Cytochrome P450 3A4) | Ki (Cytochrome P450 3A4) | IC50 [4] | IC50 [5] | IC50 [6] | Ki [6] | IC50 (Caspase-1) | IC50 [7] | Ki [7] | IC50 [8] | Ki [8] | IC50 [9] | Ki [9] | IC50 [10]

O=C1NC(=O)C(c2ccccc2)(c2ccccc2)N1 [PHENYTOIN]
Not Active: IC50 [1] | IC50 [2] | IC50 [3] | IC50 (Cytochrome P450 3A4) | Ki (Cytochrome P450 3A4) | IC50 [4] | IC50 [5] | IC50 [6] | Ki [6] | IC50 (Caspase-1) | IC50 [7] | Ki [7] | IC50 [8] | Ki [8] | IC50 [9] | Ki [9] | IC50 [10]

CNC(=O)Oc1ccc2c(c1)[C@]1(C)CCN(C)[C@@H]1N2C [PHYSOSTIGMINE]
Not Active: IC50 [1] | IC50 [2] | IC50 [3] | IC50 (Cytochrome P450 3A4) | Ki (Cytochrome P450 3A4) | IC50 [4] | IC50 [5] | IC50 [6] | Ki [6] | IC50 (Caspase-1) | IC50 [7] | Ki [7] | IC50 [8] | Ki [8] | IC50 [9] | Ki [9] | IC50 [10]

C=C(C)[C@@H]1[C@H]2OC(=O)[C@@H]1[C@]1(O)C[C@H]3O[C@]34C(=O)O[C@H]2[C@]14C [PICROTOXININ]
Not Active: IC50 [1] | IC50 [2] | IC50 [3] | IC50 (Cytochrome P450 3A4) | Ki (Cytochrome P450 3A4) | IC50 [4] | IC50 [5] | IC50 [6] | Ki [6] | IC50 (Caspase-1) | IC50 [7] | Ki [7] | IC50 [8] | Ki [8] | IC50 [9] | Ki [9] | IC50 [10]

CCC1(c2ccccc2)C(=O)NCNC1=O [PRIMIDONE]
Not Active: IC50 [1] | IC50 [2] | IC50 [3] | IC50 (Cytochrome P450 3A4) | Ki (Cytochrome P450 3A4) | IC50 [4] | IC50 [5] | IC50 [6] | Ki [6] | IC50 (Caspase-1) | IC50 [7] | Ki [7] | IC50 [8] | Ki [8] | IC50 [9] | Ki [9] | IC50 [10]
